Measured values: patent US20060263453A1, “Methods and compositions for modulating glutamate dehydrogenase” (priority 2004, published 2006)

Tests used:
[1] = tested on: GDH from Tetrahymena thermophilia (tGDH); experiment: kinetic analysis of Tetrahymena GDH; type: biochemical; conditions: FIG. 4
Experimental: First, aliquots of GDH were extensively dialyzed against 0.1M sodium phosphate buffer, pH 7.0, which contained 1 mM ethylenediaminetetraacetic acid (EDTA). The enzyme concentrations were adjusted to 1 mg/ml and the amount of enzyme added to the reaction mixture, for kinetic analysis, was adjusted to yield optimal steady state velocity measurements. All solutions were made immediately prior to use. Enzyme assays were performed by monitoring reduced coenzyme absorbance at 340 nm using a Shimadzu UV-1601 spectrophotometer. The reductive amination reactions were performed in 3 mL volumes at pH 7.0 in the presence of 0.1 mM nicotinamide adenine dinucleotide (NADH), 50 mM NH4Cl, and 5 mM 2-oxoglutarate. The rate of NADH oxidation was calculated using an extinction coefficient of 6.22 mM^−1 cm^−1.
To this end, EGCG was tested against five different HI/HA mutant forms of GDH, namely, R265K, R269C, E296A, S448P, and H454Y. In addition, EGCG was tested against human wild type GDH (“WT”), GDH from Tetrahymena thermophilia (“tGDH”) that, like the HI/HA mutant GDH enzymes, is not regulated by GTP, and a human GDH that was missing a certain 48 residue ‘antenna-like’ feature protruding from the top of each of its six subunits that is necessary for ADP, GTP, and Palmitoyl CoA regulation. […]

[2] = tested on: rat islets; experiment: BCH-stimulated insulin secretion in perifused islets (120 minute run-down, BCH ramp); type: cell-based, Wistar rat
Experimental: In this Example, adult male Wistar rat islets were isolated by collagenase digestion and initially cultured in glucose-free RPMI […] medium (Sigma Aldrich Chemical Company, St. Louis, Mo.). The culture medium was supplemented with 10% fetal bovine serum, 2 mM glutamine, 100 units/mL penicillin, and 50 μg/mL streptomycin.
The islets were then perifused in the absence of glucose and in the presence of 2 mM glutamine (and the different concentrations of EGCG or EGC shown in FIG. 5) for run-down periods of 120 minutes prior to stimulation with a BCH ramp (0 to 10 mM, 0.2 mM/minute). Specifically, 100 cultured rat islets were loaded onto nylon filters in a small chamber and perifused in a Krebs-Ringer bicarbonate buffer (115 mmol/liter NaCl, 24 mmol/liter NaHCO3, 5 mmol/liter KCl, 1 mmol/liter MgCl2, 2.5 mmol/liter CaCl2, in 10 mM HEPES, pH 7.4) with 0.25% bovine serum albumin at a flow rate of 2 mL/minute. Perifusate solutions were gassed with 95% O2/5% CO2 and maintained at 37° C. Finally, the islets were exposed to 30 mM KCl. Samples were collected every minute to measure insulin levels by radioimmunoassay.

O=C(O[C@@H]1Cc2c(O)cc(O)cc2O[C@@H]1c1cc(O)c(O)c(O)c1)c1cc(O)c(O)c(O)c1 [EGCG, (2R,3R)-2-(3,4,5-Trihydroxyphenyl)-3,4-dihydro-1 (2H)-benzopyran-3,5,7-triol 3-(3,4,5-trihydroxybenzoate)]
inhibition of tGDH [1]: inhibited
intrinsic ability of the cells to secrete insulin (depolarization by KCl) ([2]; 30 mM KCl): did not affect
BCH stimulation of insulin secretion blocked ([2]; FIG. 5): blocked
